Structures can show the parent of a compound that is named as a salt.
Columns and labels:
[1] = test system: brain glucosylceramide content; assay: Brain glucosylceramide content after intraperitoneal administration to mice for 3 days; format: in vivo; conditions: intraperitoneal administration for 3 days
Procedure: The compounds were screened for inhibition of GCS in broken cell and whole cell assays, and for MDR1 substrate recognition.
(§1) Mouse Tissue Lipid Analysis
Lipid extractions of liver, kidney, and brain were performed as previously described (7). Briefly, frozen liver (about 0.5 g), two kidneys (about 0.3 g) and whole brain (about 0.4 g) were individually homogenized in sucrose buffer (250 mM sucrose, pH 7.4, 10 mM HEPES and 1 mM EDTA), at 0.2 g tissue/1 mL of sucrose buffer, with a Tri-R homogenizer. Each 0.8 mL of homogenate was mixed with 2 mL of methanol and 1 mL of chloroform, bath sonicated for 1 min and incubated at room temperature for 1 h. Tissue debris were removed by centrifugation at 2,400× gravity for 30 min. The pellets were re-extracted by mixing with 1 mL of methanol, 0.5 mL of chloroform and 0.4 mL of 0.9% NaCl (chloroform/methanol/0.9% NaCl, 1:2:0.8), incubated at room temperature for 1 h and centrifuged at 2,400× gravity for another 30 min. Two extracts were combined and mixed with 4.5 mL of chloroform and 1.2 mL of 0.9% NaCl (chloroform/methanol/0.9% NaCl, 2:1:0.8). After centrifugation at 800× gravity for 5 min, lower layer was washed with 3 mL of methanol and 2.4 mL of 0.9% NaCl. […]
The analysis of neutral glycosphingolipids from mouse liver, kidney, and brain was processed after alkaline methanolysis. […] GlcCer levels were quantified by comparison to known standards.

[2] = molecular target: T1, glucosylceramide synthase (GCS) (Canis lupus familiaris, UniProt A0A8I3MXG6); assay: GCS inhibition in MDCKII cells (inhibition of GlcCer production in whole wild-type MDCKII cells); format: cell-based; conditions: inhibition of GlcCer production in whole wild-type MDCKII cells, 24 hours; read-out: MDCK IC50
T1 construct: endogenous in cells; host or cells: parental (wild-type) MDCKII cells
T1 sequence (A0A8I3MXG6 1-394): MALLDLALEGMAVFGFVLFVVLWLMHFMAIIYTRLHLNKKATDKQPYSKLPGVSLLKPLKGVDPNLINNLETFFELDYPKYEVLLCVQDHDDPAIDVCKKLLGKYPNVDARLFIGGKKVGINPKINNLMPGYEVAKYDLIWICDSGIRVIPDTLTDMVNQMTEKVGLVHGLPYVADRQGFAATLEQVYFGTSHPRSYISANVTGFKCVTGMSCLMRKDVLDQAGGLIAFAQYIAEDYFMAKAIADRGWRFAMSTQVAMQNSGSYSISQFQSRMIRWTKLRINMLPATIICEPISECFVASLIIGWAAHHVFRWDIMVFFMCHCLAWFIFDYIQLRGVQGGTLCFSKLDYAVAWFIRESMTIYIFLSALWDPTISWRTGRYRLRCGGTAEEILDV
Procedure: GCS Inhibition in MDCKII Cells
Parental (WT-)MDCKII cells were routinely maintained in medium consisting of Opti-MEM/F12 (1:1), 5% FBS, 100 U/mL of penicillin, 100 μg/mL streptomycin and 200 mM L-glutamine. MDCKII cells were newly thawed from frozen ampules every two months.
The inhibitor-ethanol solutions then were diluted 50× into 2 mM delipidated bovine serum albumin-phosphate buffered saline solution to make water-soluble glycosphingolipid inhibitor-bovine serum albumin complexes. The inhibitor-bovine serum album complexes were sterile-filtered and stored at −20° C. Prior to use, portions of the inhibitor-bovine serum albumin complexes were further diluted with Opti-F12 to make treatment solutions. Equal amounts of bovine serum albumin and ethanol were added into the control cultures. Cells (5×10^5) were seeded into 10-cm culture dishes containing 10 ml of Opti-F12 with 5% FBS. After 24 hours, the medium was replaced with fresh serum-free Opti-F12 medium, and cells were exposed to candidate GCS inhibitors at concentrations of 0, 1, 3, 10, 30, 100 and 300 nM for 24 hours.
Briefly, cells were washed with ice-cold phosphate buffered saline, fixed by methanol, and collected with rubber scraper. Chloroform was then added to yield a theoretical ratio of chloroform:methanol:water at 1:2:0.8 (v/v/v) to form a mono-phase. Cell debris and proteins were removed by centrifugation at 2200×g for 30 min. The supernatants were portioned by adding chloroform and 0.9% NaCl. […] A portion of purified glycosphingolipids normalized to 100 nmol of total phospholipids was analyzed by high performance thin layer chromatography. The thin layer chromatography separations were processed twice. The plate pretreated with 1% sodium borate was first developed in a solvent system consisting of chloroform/methanol (98/2, v/v). After air drying, the plate was then developed in a solvent system containing chloroform/methanol/water (70/30/4, v/v/v). The levels of glucosylceramide were detected by charring with 8% cupric sulfate in 8% phosphoric acid, and quantified by densitometric scanning using ImageJ, NIH Image.

[3] = test system: brain glucosylceramide (GCS inhibition); assay: Reduction of brain glucosylceramide in CBE mice; format: in vivo; conditions: 26 μmol/kg/day IP, qd, 14 days
Procedure: Reduction of Brain Glucosylceramide and Glucosylsphingosine in CBE Mice
The reduction by inhibitors of GCS in brain glucosylceramide and glucosylsphingosine content was determined by the use of mice with Gba 1 mutant alleles, termed D409V/null. These are knock-in mice with a Gba 1 point mutation encoding Valine (V) 409 for the wild type (WT) Aspartate (D) on one missense allele and a null heteroallele [D409V/null (9V/null)]. The D409V/null and WT littermates were of mixed gender and mixed, but matched, genetic backgrounds of C57BL/129Sv/FVB. (Xu Y H, Sun Y, Barnes S, Grabowski G A (2010) Comparative therapeutic effects of velaglucerase alfa and imiglucerase in a Gaucher disease mouse model. PLoS One 5: e10750.) Mice were treated with intraperitoneal conduritol B epoxide (CBE), an irreversible inhibitor of beta-glucocerebrosidase (25 mg/kg/day) for all groups beginning at post-partum day 15. Mice were concurrently treated with GCS inhibitor or vehicle control for 14 days. The mice were sacrificed 2 hours following the last injection and tissues including brain, liver, spleen, kidney and lung were analyzed for glucosylceramide and glucosylsphingosine by mass spectrometry.
as §1
Lipid extractions of liver, kidney, and brain were performed as previously described (7). Briefly, frozen liver (about 0.5 g), two kidneys (about 0.3 g) and whole brain (about 0.4 g) were individually homogenized in sucrose buffer (250 mM sucrose, pH 7.4, 10 mM HEPES and 1 mM EDTA), at 0.2 g tissue/1 mL of sucrose buffer, with a Tri-R homogenizer. Each 0.8 mL of homogenate was mixed with 2 mL of methanol and 1 mL of chloroform, bath sonicated for 1 min and incubated at room temperature for 1 h. Tissue debris were removed by centrifugation at 2,400× gravity for 30 min. The pellets were re-extracted by mixing with 1 mL of methanol, 0.5 mL of chloroform and 0.4 mL of 0.9% NaCl (chloroform/methanol/0.9% NaCl, 1:2:0.8), incubated at room temperature for 1 h and centrifuged at 2,400× gravity for another 30 min. Two extracts were combined and mixed with 4.5 mL of chloroform and 1.2 mL of 0.9% NaCl (chloroform/methanol/0.9% NaCl, 2:1:0.8). After centrifugation at 800× gravity for 5 min, lower layer was washed with 3 mL of methanol and 2.4 mL of 0.9% NaCl. Second washing was carried with 3 mL of methanol, 2 mL of water and 0.4 mL of 0.9% NaCl followed by a 5 min centrifugation at 800× gravity. The resultant lower phase was collected and dried under a stream of N2 gas.
The analysis of neutral glycosphingolipids from mouse liver, kidney, and brain was processed after alkaline methanolysis. […] lipids were incubated with 2 mL of chloroform and 1 ml of 0.21N NaOH in methanol for 2 h (kidney) or 7.5 h (liver and brain) at RT. The lipid extract was normalized to 0.5 μmol of total phospholipid phosphate (liver and kidney) or 2 μmol of total phospholipid phosphate (brain) for high performance thin layer chromatography analysis. After alkaline methanolysis, the brain lipids were passed through a silica gel column (7). Borate-impregnated thin layer chromatography plates were developed in a two solvent system. Plates were first developed in chloroform/methanol (98:2, v/v). The plates loaded with kidney and liver lipids were then developed in chloroform/methanol/water (64:24:4, v/v/v), and brain lipids were further separated in chloroform/methanol/water (60:30:6, v/v/v). GlcCer levels were quantified by comparison to known standards.
(§2) ^a Inhibition of GlcCer production in whole wild-type MDCKII cells. ^bHalf-life when incubated with mouse liver microsomes. ^cAreas under the drug concentration curve after single IP dose in mice (10 mg/kg). ^dReduction in brain levels of glucosylceramide in CBE mice after 14 days of qd dosing with test drug administered IP. NC=no change.

[4] = IP PK: areas under the drug concentration curve after single IP dose in mice; format: in vivo; conditions: mice, single IP dose 10 mg/kg; for AUC: mouse, plasma
[5] = Half-life when incubated with mouse liver microsomes (MLM); format: in vitro ADME; conditions: half-life when incubated with mouse liver microsomes; read-out: MLM T½
Procedure: as §2

SMILES | decrease in brain glucosylceramide content [1] | IC50 [2] [nM] | Reduction in brain GlcCer in CBE mice [3] [%] | IP PK Brain AUC [4] [ng·h/mL] | AUC [4] [ng·h/mL] | half-life [5] [h]
CCCCCCCC(=O)N[C@H](CN1CCCC1)[C@H](O)c1ccc2c(c1)OCCO2 [eliglustat tartrate, N-((1R,2R)-1-(2,3-dihydrobenzo-[b][1,4]dioxin-6-yl)-1-hydroxy-3-(pyrrolidin-1-yl)propan-2-yl)octanamide] | not seen | – | – | – | – | –
O=C(CC1Cc2ccccc2C1)N[C@H](CN1CCCC1)[C@H](O)c1ccc(OC2CC2)c(Cl)c1 [Example 4, N-((1R,2R)-1-(3-chloro-4-cyclopropoxyphenyl)-1-hydroxy-3-(pyrrolidin-1-yl)propan-2-yl)-2-(2,3-dihydro-1H-inden-2-yl)acetamide] | – | 0.14 | 33 | 293 | 1020 | 0.4
CC(C)(C)Oc1ccc([C@@H](O)[C@@H](CN2CCCC2)NC(=O)CC2Cc3ccccc3C2)cc1Cl [Example 2, N-((1R,2R)-1-(4-(tert-butoxy)-3-chlorophenyl)-1-hydroxy-3-(pyrrolidin-1-yl)propan-2-yl)-2-(2,3-dihydro-1H-inden-2-yl)acetamide] | – | 0.081 | 21 | 1316 | 1990 | 2.83

Reference: US11220479B2, “Glucosylceramide synthase inhibitors and therapeutic methods using the same” (THE REGENTS OF THE UNIVERSITY OF MICHIGAN, priority 2019, dated 2022)
